{"source": "ChEMBL document CHEMBL3608274", "about": "“Design and synthesis of constrained analogs of LCRF-0004 as potent RON tyrosine kinase inhibitors” (Bioorg Med Chem Lett, 2015)", "key": {"[1]": {"molecular_target": "Macrophage-stimulating protein receptor (Homo sapiens, UniProt Q04912)", "sequence (Q04912 25-304 limits assumed)": "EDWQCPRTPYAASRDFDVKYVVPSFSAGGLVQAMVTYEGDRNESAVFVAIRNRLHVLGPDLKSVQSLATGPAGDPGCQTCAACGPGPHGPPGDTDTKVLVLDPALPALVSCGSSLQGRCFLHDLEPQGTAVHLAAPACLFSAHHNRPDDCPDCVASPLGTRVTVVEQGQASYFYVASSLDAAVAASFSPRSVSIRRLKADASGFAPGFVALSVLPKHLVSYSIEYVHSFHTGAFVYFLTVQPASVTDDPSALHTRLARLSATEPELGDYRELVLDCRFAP", "sequence (Q04912 310-1400 limits assumed)": "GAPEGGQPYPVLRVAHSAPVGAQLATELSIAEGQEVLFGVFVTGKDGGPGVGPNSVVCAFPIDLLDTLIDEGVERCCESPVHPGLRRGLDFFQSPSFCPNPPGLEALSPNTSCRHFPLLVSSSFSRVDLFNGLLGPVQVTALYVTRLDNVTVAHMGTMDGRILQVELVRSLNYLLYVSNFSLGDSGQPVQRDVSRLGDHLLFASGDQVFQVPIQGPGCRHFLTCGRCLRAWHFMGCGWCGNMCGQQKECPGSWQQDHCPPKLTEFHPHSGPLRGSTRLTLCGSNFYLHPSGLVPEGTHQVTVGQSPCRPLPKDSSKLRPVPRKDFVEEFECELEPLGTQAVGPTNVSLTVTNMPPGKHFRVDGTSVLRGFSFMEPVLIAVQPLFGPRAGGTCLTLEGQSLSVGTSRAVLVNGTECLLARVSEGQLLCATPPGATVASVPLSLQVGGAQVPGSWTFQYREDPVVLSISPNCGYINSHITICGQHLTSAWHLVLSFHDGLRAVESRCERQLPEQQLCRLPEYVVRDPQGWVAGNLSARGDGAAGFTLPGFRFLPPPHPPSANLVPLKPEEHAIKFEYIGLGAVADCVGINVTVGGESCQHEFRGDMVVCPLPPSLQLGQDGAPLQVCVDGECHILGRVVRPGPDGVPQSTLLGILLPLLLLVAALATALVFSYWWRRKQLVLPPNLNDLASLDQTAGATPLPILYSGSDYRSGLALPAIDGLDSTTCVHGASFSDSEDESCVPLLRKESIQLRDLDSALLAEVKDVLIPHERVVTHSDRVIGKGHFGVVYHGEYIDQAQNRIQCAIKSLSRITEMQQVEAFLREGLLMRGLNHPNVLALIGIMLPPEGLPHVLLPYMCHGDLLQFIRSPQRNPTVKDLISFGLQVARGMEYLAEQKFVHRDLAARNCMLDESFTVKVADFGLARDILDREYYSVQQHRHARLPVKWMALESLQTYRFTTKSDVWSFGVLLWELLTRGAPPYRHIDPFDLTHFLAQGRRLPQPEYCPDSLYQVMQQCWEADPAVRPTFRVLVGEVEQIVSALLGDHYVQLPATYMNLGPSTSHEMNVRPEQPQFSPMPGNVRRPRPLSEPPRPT", "test": "Inhibition of human RON"}, "[2]": {"molecular_target": "Hepatocyte growth factor receptor (Homo sapiens, UniProt P08581)", "sequence (P08581 whole entry)": "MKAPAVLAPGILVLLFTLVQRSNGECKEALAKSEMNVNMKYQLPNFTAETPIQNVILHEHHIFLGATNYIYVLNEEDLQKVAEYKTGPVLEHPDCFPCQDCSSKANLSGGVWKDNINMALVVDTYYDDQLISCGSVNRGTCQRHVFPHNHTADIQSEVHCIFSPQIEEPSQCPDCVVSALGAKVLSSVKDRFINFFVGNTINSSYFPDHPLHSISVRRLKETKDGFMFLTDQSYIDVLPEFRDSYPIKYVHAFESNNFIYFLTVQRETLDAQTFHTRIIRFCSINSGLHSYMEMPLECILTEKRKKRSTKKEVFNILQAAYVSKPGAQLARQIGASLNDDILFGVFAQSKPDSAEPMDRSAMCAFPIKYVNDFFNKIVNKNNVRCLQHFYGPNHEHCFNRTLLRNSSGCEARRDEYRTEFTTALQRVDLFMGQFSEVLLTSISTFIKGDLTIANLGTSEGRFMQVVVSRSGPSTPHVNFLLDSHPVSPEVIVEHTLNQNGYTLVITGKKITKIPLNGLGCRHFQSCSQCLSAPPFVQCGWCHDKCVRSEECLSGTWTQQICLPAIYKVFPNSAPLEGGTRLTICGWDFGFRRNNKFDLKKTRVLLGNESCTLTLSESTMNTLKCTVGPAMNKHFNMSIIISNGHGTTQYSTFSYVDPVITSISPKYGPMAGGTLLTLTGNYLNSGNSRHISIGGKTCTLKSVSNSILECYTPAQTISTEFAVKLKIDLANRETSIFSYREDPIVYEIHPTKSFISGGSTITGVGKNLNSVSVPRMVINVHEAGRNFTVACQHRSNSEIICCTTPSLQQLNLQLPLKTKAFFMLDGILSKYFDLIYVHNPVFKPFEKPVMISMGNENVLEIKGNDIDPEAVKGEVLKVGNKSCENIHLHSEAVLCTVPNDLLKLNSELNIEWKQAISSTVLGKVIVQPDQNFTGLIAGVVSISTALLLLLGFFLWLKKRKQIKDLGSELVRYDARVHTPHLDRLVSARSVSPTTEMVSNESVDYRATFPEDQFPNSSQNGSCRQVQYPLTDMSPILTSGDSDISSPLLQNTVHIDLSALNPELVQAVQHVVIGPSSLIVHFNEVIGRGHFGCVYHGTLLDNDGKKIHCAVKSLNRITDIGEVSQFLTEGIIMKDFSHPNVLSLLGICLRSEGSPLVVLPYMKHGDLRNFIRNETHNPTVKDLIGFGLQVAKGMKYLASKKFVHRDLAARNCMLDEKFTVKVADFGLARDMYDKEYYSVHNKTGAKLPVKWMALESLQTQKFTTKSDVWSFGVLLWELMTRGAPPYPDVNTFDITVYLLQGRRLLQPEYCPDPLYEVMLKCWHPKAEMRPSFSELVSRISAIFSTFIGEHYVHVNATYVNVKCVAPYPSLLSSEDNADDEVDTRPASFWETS", "test": "Inhibition of human c-Met"}}, "data": [{"compound": "Cn1cnc(-c2cc3nccc(Oc4ccc(NC(=O)c5cnn(-c6ccccc6)c5C(F)(F)F)cc4F)c3s2)c1", "values": [{"measurement": "IC50", "setting": "[1]", "result": 10, "unit": "nM"}, {"measurement": "IC50", "setting": "[2]", "result": 12, "unit": "nM"}]}]}
